“Also recorded” adds a separate entry of the source. Read-outs that look alike come from different tables or passages of the source.
Tests used:
[1] = test system: CHIKV replicon; assay: microbe, parasite or virus in culture; assay type: cell-based, Chikungunya virus (CHIKV)
[2] = test system: BHK-CHIKV-NCT cells; assay: Cell viability ATP assay, BHK-CHIKV-NCT cells; assay type: cell-based, hamster
[3] = test system: BHK cells; assay: Cell viability ATP assay, BHK cells; assay type: cell-based, hamster; conditions: Mesocricetus auratus, BHK, 48 h, read-out: Cell viability IC50
[4] = test system: SFV; assay: CPE reduction assay, SFV (WST-1); assay type: cell-based, Semliki Forest virus (SFV); conditions: Semliki Forest virus, BHK, 22 h, read-out: SFV IC50 (CPE reduction)
[5] = test system: SINV; assay: CPE reduction assay, SINV (WST-1); assay type: cell-based, Sindbis virus (SINV); conditions: Sindbis virus, BHK, 24 h, read-out: SINV IC50 (CPE reduction)
[6] = test system: SFV; assay: Viral yield analysis using a plaque assay; assay type: cell-based, Semliki Forest virus (SFV); conditions: for Decrease of SFV titer versus untreated control: 50 µM compound, MOI 0.01, 16 h; for SFV yield: BHK cells, MOI 0.01, 50 µM compound, 16 h, untreated control 1.4×10^9 PFU/ml
[7] = test system: SFV-Rluc; conditions: for IC50: read-out: SFV IC50
[8] = test system: SFV-Rluc; assay: microbe, parasite or virus in culture; conditions: Semliki Forest virus, BHK; for IC50: 14 h, read-out: SFV IC50
[9] = test system: CHIKV-Rluc; assay: microbe, parasite or virus in culture; assay type: cell-based, Chikungunya virus (CHIKV); conditions: Chikungunya virus, BHK, 16 h, read-out: CHIKV-Rluc IC50
[10] = test system: CHIKV; conditions: cited from earlier work
[11] = test system: SFVts9-Rluc; assay type: cell-based, Semliki Forest virus (SFV)
[12] = test system: CHIKV; conditions: 2006 La Réunion outbreak; cited from earlier work
[13] = Chikungunya virus, 48 h, read-out: EGFP IC50
[14] = Chikungunya virus, 48 h, read-out: Rluc IC50
[15] = Mesocricetus auratus, 48 h, read-out: Cell viability IC50, ATP assay, 48 h exposure of BHK-CHIKV-NCT cells, up to 200 µM

SMILES | IC50 [1, 13] | IC50 [1, 14] | IC50 [2, 15] | IC50 [3] | IC50 [4] | IC50 [5] | SFV yield [6] | SI (selectivity index) [7] | IC50 [8] | IC50 [9] | CHIKV replicon % left [1] | Effect on SFV entry (Rluc activity) [11] | SFV replication % left (surviving fraction, remaining percentage of SFV replication) [7] | further results
Nc1ncnc2c1ncn2[C@@H]1O[C@H](CO)[C@@H](N)[C@H]1O [3′-NH2-3′-deoxyadenosine, 3′-amino-3′-deoxyadenosine] | 34 µM | 62.4 µM | 187 µM | 174 µM | 17.5 µM | 23.4 µM | 2.7×10^7 PFU/ml | 10.7 | 16.2 µM |  |  |  |  | Decrease of SFV titer versus untreated control [6]: two orders of magnitude
O=c1cnn([C@@H]2O[C@H](CO)[C@@H](O)[C@H]2O)c(=O)[nH]1 [6-Azauridine] |  |  | > 200 µM | > 200 µM | > 200 µM | > 200 µM | 9.1×10^7 PFU/ml |  | > 200 µM | 29.7 µM |  |  |  | IC50 ([10]; approximate conversion of 0.2 µg/ml, read-out: previously reported potency for CHIKV, converted): ~800 nM; previously reported potency for CHIKV [10]: 0.2 µg/mL; inhibition at 200 µM ([8]; read-out: Inhibition of SFV-Rluc): 40%
O=c1cc(-c2ccc(O)cc2)oc2cc(O)cc(O)c12 [Apigenin] | 22.5 µM | 28.3 µM | > 200 µM | > 200 µM | 4.4 µM | 7.2 µM | 6.7×10^7 PFU/ml | >9.7 | 20.6 µM | 70.8 µM | 8.7% | None of the other compounds, including the flavonoids apigenin, chrysin, naringenin and silybin, inhibited SFV entry | 18.0% | 
CCN(CC)CCCC(C)Nc1ccnc2cc(Cl)ccc12 (centres unmarked) [Chloroquine] |  |  |  | > 200 µM | 8.2 µM | 11.3 µM | 3.3×10^7 PFU/ml | >14.9 | 13.4 µM |  | 104.4% |  | 12.2% | Suppression of CHIKV replicon (in words) [1]: no suppression of replicon propagation; also recorded: has no effect on CHIKV replicon; Decrease of SFV titer versus untreated control [6]: two orders of magnitude; Effect on Rluc signal of SFVts9-Rluc (entry) [11]: dose-dependent inhibition of Rluc signal; Clinical efficacy in acute CHIKV viremia (duration of viremia, severity and duration of symptoms) [12]: failed to show any benefits
CN(C)CCCN1c2ccccc2Sc2ccc(Cl)cc21 [Chlorpromazine] |  |  |  | 67.3 µM |  |  |  |  | 15.7 µM | 39.4 µM |  | decreased the Rluc activity |  | 
O=c1cc(-c2ccccc2)oc2cc(O)cc(O)c12 [Chrysin] | 46.8 µM | 50.2 µM | > 200 µM | > 200 µM | 22.9 µM | 43.3 µM | 2.9×10^8 PFU/ml | >14.6 | 13.7 µM | 127 µM | 13.8% | None of the other compounds, including the flavonoids apigenin, chrysin, naringenin and silybin, inhibited SFV entry | 18.1% | 
CCN(CC)C(C)CN1c2ccccc2Sc2ccccc21 (centres unmarked) [Ethopropazine] |  |  |  | 167 µM | 17.1 µM | 21.4 µM | 8.1×10^8 PFU/ml | 10.4 | 16 µM | 61.5 µM |  | decreased the Rluc activity |  | 
CN1CCC(CN2c3ccccc3Sc3ccccc32)C1 (centres unmarked) [Methdilazine] |  |  |  | 63.8 µM |  |  |  | 5.6 | 11.3 µM | 84.5 µM | 19.1% | decreased the Rluc activity | 22.5% | 
COc1c(C)c2c(c(O)c1C/C=C(\C)CCC(=O)O)C(=O)OC2 [Mycophenolic acid, reference compound] | ~1 µM |  | > 200 µM | > 200 µM | 39 µM | 44.4 µM | 1.2×10^8 PFU/ml | >1.7 | ~100 µM |  |  |  |  | Change of replicon IC50 with guanosine supplementation [1]: increased by at least two orders of magnitude; IC50 ([1]; read-out: EGFP IC50): 1.5 µM; Decrease of SFV titer versus untreated control [6]: approximately one order of magnitude; IC50 [7]: 121 µM
O=C1C[C@@H](c2ccc(O)cc2)Oc2cc(O)cc(O)c21 [Naringenin] | 25.8 µM | 30 µM | 104 µM | 94.1 µM | 19.3 µM | 21.2 µM | 8.2×10^7 PFU/ml | 42.8 | 2.2 µM | 118 µM | 6.2% | None of the other compounds, including the flavonoids apigenin, chrysin, naringenin and silybin, inhibited SFV entry | -0.0736% | IC50 ([2]; read-out: Cell viability IC50, ATP assay, 48 h exposure of BHK-CHIKV-NCT cells, up to 200 µM): 122 µM
OCCN1CCN(CCCN2c3ccccc3Sc3ccc(Cl)cc32)CC1 [Perphenazine] |  |  |  | 155 µM |  |  |  | 6.2 | 25.1 µM | 48.1 µM | 88.1% | decreased the Rluc activity | 10.6% | 
CN(C)CCCN1c2ccccc2Sc2cccnc21 [Prothipendyl] | 135 µM | 93.3 µM | 186 µM | > 200 µM | 34.2 µM | 46.5 µM | 4.0×10^8 PFU/ml | >24.4 | 8.2 µM | 97.3 µM |  |  |  | 
NC(=O)c1ncn([C@@H]2O[C@H](CO)[C@@H](O)[C@H]2O)n1 [Ribavirin] | 8.8 µM | 25.4 µM | > 200 µM | > 200 µM | 28.1 µM | 51.8 µM | 2.1×10^8 PFU/ml |  | ~100 µM |  |  |  |  | Change of replicon IC50 with guanosine supplementation [1]: increased by at least two orders of magnitude; Decrease of SFV titer versus untreated control [6]: approximately one order of magnitude; IC50 [7]: 95.1 µM
COc1cc(C2Oc3cc([C@H]4Oc5cc(O)cc(O)c5C(=O)[C@@H]4O)ccc3OC2CO)ccc1O (some centres unmarked) [Silybin] | 71.1 µM | 59.8 µM | > 200 µM | > 200 µM | 9.6 µM | 22.6 µM | 3.7×10^8 PFU/ml | >12.2 | 16.4 µM | 92.3 µM | 14.1% | None of the other compounds, including the flavonoids apigenin, chrysin, naringenin and silybin, inhibited SFV entry | 22.4% | 
CCSc1ccc2c(c1)N(CCCN1CCN(C)CC1)c1ccccc1S2 [Thiethylperazine] |  |  |  | 83.1 µM |  |  |  | 5.5 | 15 µM | 63.8 µM | 101.1% | decreased the Rluc activity | 26.5% | 
CSc1ccc2c(c1)N(CCC1CCCCN1C)c1ccccc1S2 (centres unmarked) [Thioridazine, reference compound] |  |  |  |  |  |  | 6.8×10^8 PFU/ml |  |  |  | 95.4% | decreased the Rluc activity | 11.6% | 
